Experimental data as given in PubChem BioAssay AID1259407 (Chemical Carcinogenesis Research Information System (CCRIS), 2018).
Active and inactive are the calls of the source. No rule for the calls is given here.

System: CCRIS mutagenicity, Ames/micronucleus/aberration tests
Test: CCRIS mutagenicity studies

COc1cccc2c1C(=O)c1c(O)c3c(c(O)c1C2=O)C[C@@](O)(C(=O)CO)C[C@@H]3O[C@H]1C[C@H](N)[C@H](O)[C@H](C)O1
mutagenic call (End Point: IN VITRO CHROMOSOMAL ABERRATIONS, Test System: CHO-WBL CELLS, Metabolic Activation: NONE): active; positive | mutagenic call (End Point: IN VITRO CHROMOSOMAL ABERRATIONS, Test System: HUMAN (MALE) PERIPHERAL LYMPHOCYTES, Metabolic Activation: NONE, Method: FISH (METAPHASE)): active; positive (structural changes) | mutagenic call (End Point: IN VIVO CHROMOSOMAL ABERRATIONS, Test System: BONE MARROW CELLS, Species: RAT, Strain/Sex: WISTAR/MALE, FEMALE, Route: IP): active; positive (structural changes; abnormal metaphase) | mutagenic call (End Point: IN VIVO CHROMOSOMAL ABERRATIONS, Test System: BONE MARROW CELLS, Species: RAT, Strain/Sex: WISTAR, Route: IP): active; positive | mutagenic call (End Point: IN VIVO CHROMOSOMAL ABERRATIONS, Test System: BONE MARROW, Species: RAT, Strain/Sex: WISTAR/MALE, FEMALE, Route: INTRAPERITONEAL): active; positive (structural changes) | mutagenic call (End Point: IN VIVO CHROMOSOMAL ABERRATIONS, Test System: BONE MARROW, Species: RAT, Strain/Sex: WISTAR, Route: INTRAPERITONEAL (TEST MATERIAL SOLVENT: WATER)): active; positive (structural changes) | mutagenic call (End Point: In vitro chromosomal aberrations, Test System: Chinese hamster ovary (CHO) cells, Metabolic Activation: None): active; positive (structural changes) | mutagenic call (End Point: In vitro chromosomal aberrations, Test System: Human (female) lymphocytes): active; positive. fucus vesiculosus extract (84696-13-9) at 0.25-1.0 mg/ml was antimutag | mutagenic call (End Point: In vitro chromosomal aberrations, Test System: Human lymphocytes, Metabolic Activation: None): active; positive (structural changes). significantly reduced by selenomethionine treatme | mutagenic call (End Point: In vitro micronucleus, Test System: Human peripheral blood lymphocytes, Metabolic Activation: None): active; positive | mutagenic call (End Point: In vivo chromosomal aberrations, Test System: Bone marrow cells, Species: Rat, Strain/Sex: Wistar/Male and female, Route: Intraperitoneal): active; positive (structural changes); administration of vitamin c or vitamin e decrease | mutagenic call (End Point: In vivo chromosomal aberrations, Test System: Bone marrow cells, Species: Rat, Strain/Sex: Wistar/Male and female, Route: Oral): active; positive (structural changes) | mutagenic call (End Point: In vivo chromosomal aberrations, Test System: Bone marrow, Species: Rat, Strain/Sex: Wistar/Male and female, Route: Intraperitoneal (Test material solvent: either distilled water or DMSO solution)): active; positive (structural changes). prior treatment with propolis extract reduced the | mutagenic call (End Point: In vivo micronucleus, Test System: Bone marrow erythrocytes, Species: Mouse, Strain/Sex: Swiss albino/Male, Route: Oral): inactive; negative | mutagenic call (Test System: AMES SALMONELLA TYPHIMURIUM, Strain/Indicator: GW257, Metabolic Activation: NONE, Method: STANDARD PLATE): active; positive | mutagenic call (Test System: AMES SALMONELLA TYPHIMURIUM, Strain/Indicator: TA97, Metabolic Activation: NONE, Method: STANDARD PLATE): inactive; negative | mutagenic call (Test System: AMES SALMONELLA TYPHIMURIUM, Strain/Indicator: TA97, Metabolic Activation: RAT, LIVER, S-9, PHENOBARBITAL AND ALPHA-NAPHTHOFLAVONE, Method: STANDARD PLATE): inactive; negative | mutagenic call (Test System: AMES SALMONELLA TYPHIMURIUM, Strain/Indicator: TA97A, Metabolic Activation: NONE, Method: STANDARD PLATE): inactive; negative | mutagenic call (Test System: AMES SALMONELLA TYPHIMURIUM, Strain/Indicator: TA97A, Metabolic Activation: RAT, LIVER, S-9, AROCLOR 1254, Method: STANDARD PLATE): inactive; negative | mutagenic call (Test System: AMES SALMONELLA TYPHIMURIUM, Strain/Indicator: TA98, Metabolic Activation: NONE, Method: PREINCUBATION): active; positive | mutagenic call (Test System: AMES SALMONELLA TYPHIMURIUM, Strain/Indicator: TA98, Metabolic Activation: RAT, LIVER, S-9, AROCLOR 1254, Method: STANDARD PLATE): active; positive | mutagenic call (Test System: AMES SALMONELLA TYPHIMURIUM, Strain/Indicator: TA98, Metabolic Activation: RAT, LIVER, S-9, KC500 OR PHENOBARBITAL, Method: LIQUID SUSPENSION): active; positive | mutagenic call (Test System: AMES SALMONELLA TYPHIMURIUM, Strain/Indicator: TA98, Metabolic Activation: RAT, LIVER, S-9, PHENOBARBITAL AND ALPHA-NAPHTHOFLAVONE, Method: STANDARD PLATE): active; positive | mutagenic call (Test System: AMES SALMONELLA TYPHIMURIUM, Strain/Indicator: TA98, Metabolic Activation: S-9, Method: PREINCUBATION): active; positive | mutagenic call (Test System: AMES SALMONELLA TYPHIMURIUM, Strain/Indicator: TA100, Metabolic Activation: NONE, Method: PREINCUBATION): inactive; negative | mutagenic call (Test System: AMES SALMONELLA TYPHIMURIUM, Strain/Indicator: TA100, Metabolic Activation: RAT, LIVER, S-9, AROCLOR 1254, Method: STANDARD PLATE): inactive; negative | mutagenic call (Test System: AMES SALMONELLA TYPHIMURIUM, Strain/Indicator: TA100, Metabolic Activation: RAT, LIVER, S-9, PHENOBARBITAL AND ALPHA-NAPHTHOFLAVONE, Method: STANDARD PLATE): active; positive | mutagenic call (Test System: AMES SALMONELLA TYPHIMURIUM, Strain/Indicator: TA100, Metabolic Activation: S-9, Method: PREINCUBATION): active; positive | mutagenic call (Test System: AMES SALMONELLA TYPHIMURIUM, Strain/Indicator: TA102, Metabolic Activation: NONE, Method: STANDARD PLATE): active; positive | mutagenic call (Test System: AMES SALMONELLA TYPHIMURIUM, Strain/Indicator: TA102, Metabolic Activation: RAT, LIVER, S-9, AROCLOR 1254, Method: STANDARD PLATE): active; positive | mutagenic call (Test System: AMES SALMONELLA TYPHIMURIUM, Strain/Indicator: TA1535, Metabolic Activation: NONE, Method: STANDARD PLATE): inactive; negative | mutagenic call (Test System: AMES SALMONELLA TYPHIMURIUM, Strain/Indicator: TA1535, Metabolic Activation: RAT, LIVER, S-9, PHENOBARBITAL AND ALPHA-NAPHTHOFLAVONE, Method: STANDARD PLATE): inactive; negative | mutagenic call (Test System: AMES SALMONELLA TYPHIMURIUM, Strain/Indicator: TA1537, Metabolic Activation: NONE, Method: STANDARD PLATE): inactive; negative | mutagenic call (Test System: AMES SALMONELLA TYPHIMURIUM, Strain/Indicator: TA1978/PKM101, Metabolic Activation: NONE, Method: STANDARD PLATE): active; positive | mutagenic call (Test System: AMES SALMONELLA TYPHIMURIUM, Strain/Indicator: TA1978, Metabolic Activation: NONE, Method: STANDARD PLATE): inactive; negative | mutagenic call (Test System: AMES SALMONELLA TYPHIMURIUM, Strain/Indicator: TA2637, Metabolic Activation: NONE, Method: STANDARD PLATE): active; positive | mutagenic call (Test System: CHINESE HAMSTER OVARY, Strain/Indicator: CHO-AS52 (GPT), Metabolic Activation: NONE): active; positive | mutagenic call (Test System: CHINESE HAMSTER OVARY, Strain/Indicator: CHO-K1-BH4 (HPRT), Metabolic Activation: NONE): active; positive | mutagenic call (Test System: CHINESE HAMSTER V-79, Strain/Indicator: V-79 (HGPRT)/6-THIOGUANINE, Metabolic Activation: NONE): active; positive | mutagenic call (Test System: CHINESE HAMSTER V-79, Strain/Indicator: V-79-MZ (HPRT)/6-THIOGUANINE, Metabolic Activation: NONE): active; positive | mutagenic call (Test System: CHINESE HAMSTER V-79, Strain/Indicator: V-79/6-THIOGUANINE, Metabolic Activation: RAT, LIVER, HEPATOCYTES, Method: SUSPENSION/PLATE): active; positive | mutagenic call (Test System: CHINESE HAMSTER V-79, Strain/Indicator: V-79/6-THIOGUANINE, Metabolic Activation: RAT, LIVER, HOMOGENATE, Method: SUSPENSION/PLATE): inactive; negative | mutagenic call (Test System: CHINESE HAMSTER V-79, Strain/Indicator: V-79/8-AZAGUANINE, Metabolic Activation: NONE, Method: STANDARD PLATE): active; positive | mutagenic call (Test System: CHINESE HAMSTER V-E5, Strain/Indicator: V-E5 (HPRT)/6-THIOGUANINE, Metabolic Activation: NONE): active; positive | mutagenic call (Test System: E. COLI, Strain/Indicator: WP2 (HCR), Metabolic Activation: NONE, Method: STANDARD PLATE): inactive; negative | mutagenic call (Test System: MOUSE LYMPHOMA, Strain/Indicator: L5178Y (TK+/TK-), Metabolic Activation: NONE, Method: SUSPENSION/PLATE): active; positive
